The target of the test is T1, MAGE-A11:PCF11 interaction (GST-MAGE-A11 MHD and FAM-PCF11_4) (Homo sapiens, UniProt P43364).
T1 construct: GST-MAGE-A11 MHD (human MAGE-A11 MHD amino acid 218-429); made in house; host or cells: E. coli BL21(DE3)
T1 sequence (P43364 218-429): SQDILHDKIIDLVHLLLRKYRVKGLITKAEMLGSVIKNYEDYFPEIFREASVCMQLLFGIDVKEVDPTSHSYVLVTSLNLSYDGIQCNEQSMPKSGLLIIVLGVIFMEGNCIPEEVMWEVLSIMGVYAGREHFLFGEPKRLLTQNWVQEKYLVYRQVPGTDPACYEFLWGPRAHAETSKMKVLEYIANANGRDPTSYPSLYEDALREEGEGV
Kind of test: TR-FRET dose response test of compounds for disruption of MAGE-A11:PCF11 binding. Here is the method:
The TR-FRET assay buffer with a formula of 50 mM Tris pH 7.5, 20 mM MgCl2, 0.1 mg/ml BSA and 1 mM DTT was freshly prepared before each experiment. All TR-FRET assays were performed in black 384-well plates with 20 µl/well assay volume in the TR-FRET assay buffer at room temperature (~25 °C). All peptides or compounds were solubilized in DMSO. To test the competitive activity of peptides or compounds against the interaction between GST-MAGE-A11 MHD and FAM-PCF11_4 peptide, 10 µl/well peptide or compound at specified concentration was dispensed into a black 384-well low volume plate, followed by 5 µl/well FAM-PCF11_4 (800 nM), 5 µl/well Tb-anti-GST (20 nM), and GST-MAGE-A11 MHD (20 nM). The assay components in each well was then mixed by shaking the plate on an IKA MTS 2/4 digital microtiter plate shaker (IKA Works; Wilmington, NC, USA) for 1 min. The plate was further centrifuged in an Eppendorf 5810 centrifuge with an A-4-62 swing-bucket rotor (Eppendorf AG, Hamburg, Germany) at 201 g for 30 s. The plate was then incubated for 90 min with a lid to avoid light exposure to the assay components. After incubation, the fluorescent emission signals at 520 nm and 490 nm channels of individual wells were measured with a PHERAstar FS plate reader (BMG Labtech; Durham, NC, USA) by using a 340 nm excitation filter, 100 µs delay time, and 200 µs integration time. The TR-FRET fluorescence emission ratio (TR-FRET signal) for each well was presented as 10,000 × 520 nm/490 nm, which was used directly for curve fitting, or further converted to %Inhibition based on the respective positive and negative controls. The graphic software GraphPad Prism 4.81 (GraphPad Software; La Jolla, CA, USA) was used to generate curves and derive IC50 values of tested peptides or compounds, if applicable.
TR-FRET screen for identifying MAGE-A11 small molecule inhibitors was performed as follows. The primary one-concentration screening and subsequent 10 or 20-concentration dose-response tests were accomplished with an automated High Throughput Screening system (HighRes Biosolutions, Beverly, MA)[30]. In the primary screening, 15 µl/well FAM-PCF11_4 (267 nM) was first dispensed with a Multidrop Combi Reagent Dispenser (Thermo Fisher Scientific, Waltham, MA) to black 384-well low-volume assay plates. The plates were spun down with a Velocity11 VSpin microplate centrifuge (Agilent Technologies, Santa Clara, CA). In total, 30 nl/well of 10 mM compound/DMSO solutions, or DMSO alone, were transferred from compound plates (the St. Jude FDA drug and bioactive library, Drug-like library and Lead-like library) or a control plate to the assay plates with a Pin Tool (V&P Scientific, San Diego, CA). The compounds were arrayed in columns 3–12 and columns 15–24 of compound plates. The controls were arrayed in columns 1, 2, 13, and 14 of a compound plate. In all, 5 µl/well Tb-anti-GST (20 nM) and GST-MAGE-A11 (20 nM) or 5 µl/well Tb-anti-GST (20 nM) alone was then dispensed to selected wells with a Multidrop Combi Reagent Dispenser. The final assay volume was 20 µl/well. The final DMSO concentration was 0.25% (v/v) (0.1% (v/v) from the FAM-PCF11_4 DMSO stock solution and 0.15% (v/v) from the compound-DMSO solution or the DMSO for the control wells). The final tested compound concentration was 15 µM. The final FAM-PCF11_4 concentration was 200 nM and the final Tb-anti-GST concentration was 5 nM. The final GST-MAGE-A11 concentration was 5 nM except for those selected positive control wells in which GST-MAGE-A11 was not presented. The plates were then shaken with a big bear shaker (Big Bear Automation, Santa Clara, California) and spun down with the Velocity11 VSpin microplate centrifuge for 20 s. The plates were then incubated at room temperature in a Liconic incubator (Liconic US, Woburn, MA) for 90 min. The TR-FRET signals for individual wells were measured with a PHERAstar FS plate reader. The %Inhibition of each tested inhibitor was calculated by using Eq. 1.

Setting [1] is: Dose response TR-FRET screening of nine scaffold groups against MAGE-A11:PCF11, read-out: consensus IC50.
[2] abbreviates: Supplementary Data 3, 59 quinoline compounds, read-out: TR-FRET IC50.

Like-named read-outs stand apart in the source and are kept apart here.

As for `COc1cc(Cc2ccc3c(NCCCNCc4cccc5c4OCO5)ccnc3c2)cc(OC)c1` [SJ000311312-1], the IC50 under setting [1] was found to be 31.3 µM.

`COc1ccc(F)cc1CNCCCNc1ccnc2cc(-c3ccc4c(c3)OCO4)ccc12` [SJ000311293-1]: the IC50 under setting [1] was found to be 29.9 µM.

Take `COc1ccc(F)cc1CNCCCNc1ccnc2cc(-c3ccc(C(C)(C)C)cc3)ccc12` [SJ000311289-1]: the IC50 under setting [1] was determined as 4.62 µM.

Turning to `Cc1cc(C)c(CNCCCNc2ccnc3cc(Cl)ccc23)c(C)c1` [SJ000520911-2], the IC50 under setting [1] was found to be 68.1 µM.

On to `Fc1ccc(Cc2ccc3c(NCCCNCc4cccc5c4OCO5)ccnc3c2)c(Cl)c1` [SJ000311324-1], for which, under setting [1], the IC50 worked out at 20.6 µM.

Regarding `COc1ccc(F)cc1CNCCCNc1ccnc2cc(Oc3ccc(Cl)cc3)ccc12` [SJ000311229-1], under setting [1], the IC50 stood at 19.7 µM.

In the case of `c1coc(CNCCCNc2ccnc3cc(-c4ccc5c(c4)OCO5)ccc23)c1` [SJ000311290-1, C(CNCc1occc1)CNc2ccnc3cc(ccc23)c4ccc5OCOc5c4], the half-maximal inhibitory concentration (IC50) under setting [2] is greater than 70 µM.

Turning to `CCOc1ccc(C2Nc3ccccc3C(=O)N2CCCN2CCOCC2)cc1` (centres unmarked) [SJ000803759-1], the IC50 under setting [1] turned out to be 67.7 µM.

In the case of `COc1cccc(CNCCCNc2ccnc3cc(-c4cccc5ccccc45)ccc23)c1O` [SJ000311275-1], the half-maximal inhibitory concentration (IC50) under setting [1] amounted to 16 µM.

Turning to `COc1ccc(F)cc1CNCCCNc1ccnc2cc(C3CCCCC3)ccc12` [SJ000311265-1], under setting [1], the IC50 stood at 24.2 µM.

Regarding `Cc1cc(C)cc(NC2=C(N)C(=O)c3ccccc3C2=O)c1` [SJ000562641-1], the IC50 under setting [1] was 55 µM.

As to `CCCN(CCCNc1ccnc2cc(Cl)ccc12)Cc1ccc(CC)cc1` [SJ000523001-1, CCCN(CCCNc1ccnc2cc(Cl)ccc12)Cc3ccc(CC)cc3], the 50% inhibitory concentration (IC50) under setting [2] was greater than 70 µM.

On to `COc1cccc(CNCCCNc2ccnc3cc(Oc4ccc(Cl)cc4)ccc23)c1O` [SJ000311227-1], for which the 50% inhibitory concentration (IC50) under setting [1] worked out at 20.7 µM.

For the molecule `COc1ccc(F)cc1CNCCCNc1ccnc2cc(-c3cccc4ccccc34)ccc12` [SJ000311277-1], the IC50 under setting [1] is 10.3 µM.

As for `CC(C)(C)CCN(CCCCNc1ccnc2cc(Cl)ccc12)Cc1ccccc1` [SJ000357537-2, CC(C)(C)CCN(CCCCNc1ccnc2cc(Cl)ccc12)Cc3ccccc3], under setting [2], the IC50 was greater than 70 µM.

As for `CCCN(CCCNc1ccnc2cc(Cl)ccc12)Cc1c(C)cc(C)cc1C` [SJ000522749-1, CCCN(CCCNc1ccnc2cc(Cl)ccc12)Cc3c(C)cc(C)cc3C], the 50% inhibitory concentration (IC50) under setting [2] is greater than 70 µM.

In the case of `FC(F)(F)c1ccc(-c2ccc3c(NCCCNCc4ccco4)ccnc3c2)cc1` [SJ000311278-1, FC(F)(F)c1ccc(cc1)c2ccc3c(NCCCNCc4occc4)ccnc3c2], the IC50 under setting [2] came to 22.7 µM.

Take `FC(F)(F)c1ccc(-c2ccc3c(NCCCNCc4cccc5c4OCO5)ccnc3c2)cc1` [SJ000311280-1]: the half-maximal inhibitory concentration (IC50) under setting [1] came out at 15.7 µM.

For the molecule `CCCCCCCCOc1ccc(NC2=C(N)C(=O)c3ccccc3C2=O)cc1` [SJ000562629-1], the half-maximal inhibitory concentration (IC50) under setting [1] stood at 54.8 µM.

As for `NC1=C(N2CCCCC2)C(=O)c2ccccc2C1=O` [SJ000294373-2], the 50% inhibitory concentration (IC50) under setting [1] amounted to 20.1 µM.

In the case of `COc1ccc(F)cc1CNCCCNc1ccnc2cc(-c3ccc(C(F)(F)F)cc3)ccc12` [SJ000311281-1], under setting [1], the IC50 was 13.4 µM.

On to `COP(=O)(OC)c1nc(-c2ccc(Cl)cc2)oc1N1CCOCC1` [SJ000090185-1], for which the IC50 amounted to 17.4 µM.

Turning to `c1coc(CNCCCNc2ccnc3cc(C4CCCCC4)ccc23)c1` [SJ000311262-1, C(CNCc1occc1)CNc2ccnc3cc(ccc23)C4CCCCC4], the IC50 under setting [2] is greater than 70 µM.

In the case of `Cc1ccc(S(=O)(=O)c2nc(-c3ccccc3Cl)oc2N2CC(C)OC(C)C2)cc1` (centres unmarked) [SJ000329066-1], the IC50 under setting [1] amounted to 13 µM.

Take `Oc1c(F)cc(F)cc1CN(CCCCNc1ccnc2cc(Cl)ccc12)Cc1ccccc1` [SJ000357506-2, Oc1c(F)cc(F)cc1CN(CCCCNc2ccnc3cc(Cl)ccc23)Cc4ccccc4]: the 50% inhibitory concentration (IC50) under setting [2] was greater than 70 µM.

As to `COc1cccc(CNCCCNc2ccnc3cc(Cc4ccc(F)cc4)ccc23)c1O` [SJ000311243-1], the IC50 under setting [1] worked out at 43.6 µM.

As to `O=C1OCC(c2ccc(OC(F)F)cc2)=C1c1ccc([N+](=O)[O-])cc1` [SJ000368145-1], the IC50 under setting [1] was found to be 40.8 µM.

`C=CCn1c(=O)c2c(nc(-c3ccccc3)n2C)n(C)c1=O` [SJ000832270-1]: the 50% inhibitory concentration (IC50) under setting [1] was greater than 70 µM.

Consider `COc1cccc(CNCCCNc2ccnc3cc(Cc4ccc(F)cc4Cl)ccc23)c1O` [SJ000311323-1], for which, under setting [1], the IC50 was determined as 17.6 µM.

Take `FC(F)(F)Oc1ccccc1CN(CCCCNc1ccnc2cc(Cl)ccc12)Cc1ccccc1` [SJ000520459-1, FC(F)(F)Oc1ccccc1CN(CCCCNc2ccnc3cc(Cl)ccc23)Cc4ccccc4]: the IC50 under setting [2] is greater than 70 µM.

`CCOC(=O)N1CCN(Cc2ccc3c(c2)c2ccccc2n3CC)CC1` [SJ000147352-1]: the 50% inhibitory concentration (IC50) under setting [1] came to 29.5 µM.

Turning to `Cc1ccc(S(=O)(=O)c2nc(-c3cccc([N+](=O)[O-])c3)oc2N2CCOCC2)cc1` [SJ000027482-1], the IC50 under setting [1] worked out at 9.54 µM.

For the molecule `CSc1ccc(C2Nc3ccccc3C(=O)N2CCCN2CCOCC2)cc1` (centres unmarked) [SJ000803762-1], the half-inhibitory concentration (IC50) under setting [1] was greater than 70 µM.

Turning to `Clc1ccc2c(NCCCCN(Cc3ccccc3)Cc3ccc4[nH]ccc4c3)ccnc2c1` [SJ000520434-1, Clc1ccc2c(NCCCCN(Cc3ccccc3)Cc4ccc5[nH]ccc5c4)ccnc2c1], under setting [2], the half-maximal inhibitory concentration (IC50) was 23.4 µM.

Turning to `COc1ccc2cc(C3Nc4ccccc4C(=O)N3CCCN3CCOCC3)ccc2c1` (centres unmarked) [SJ000803763-1], the concentration for half-maximal inhibition (IC50) under setting [1] turned out to be 67.4 µM.

Turning to `CCCS(=O)(=O)N1CCN(Cc2ccc3c(c2)c2ccccc2n3CC)CC1` [SJ000167951-1], the half-maximal inhibitory concentration (IC50) under setting [1] was 19.2 µM.

`FC(F)(F)c1cc(-c2ccc3c(NCCCNCc4cccc5c4OCO5)ccnc3c2)cc(C(F)(F)F)c1` [SJ000311272-1]: the IC50 under setting [1] is 9.02 µM.

Regarding `COc1cccc(CNCCCNc2ccnc3cc(Oc4ccc(C(C)(C)C)cc4)ccc23)c1O` [SJ000311235-1], the half-inhibitory concentration (IC50) under setting [1] worked out at 7.65 µM.

`CCCCCN(CCC)CCCNc1ccnc2cc(C(F)(F)F)ccc12` [SJ000361271-1, CCCCCN(CCC)CCCNc1ccnc2cc(ccc12)C(F)(F)F]: under setting [2], the IC50 is greater than 70 µM.

Consider `c1cc(CNCCCNc2ccnc3cc(-c4ccc5c(c4)OCO5)ccc23)c2c(c1)OCO2` [SJ000311292-1], for which the 50% inhibitory concentration (IC50) under setting [1] stood at 30.5 µM.

As to `Cc1cc(C)cc(Cc2ccc3c(NCCCNCc4ccco4)ccnc3c2)c1` [SJ000311318-2, Cc1cc(C)cc(Cc2ccc3c(NCCCNCc4occc4)ccnc3c2)c1], the half-inhibitory concentration (IC50) under setting [2] was greater than 70 µM.

With `Clc1ccc2c(NCCCCN(Cc3ccccc3)Cc3csc4ccccc34)ccnc2c1` [SJ000520446-1, Clc1ccc2c(NCCCCN(Cc3ccccc3)Cc4csc5ccccc45)ccnc2c1], the IC50 under setting [2] is greater than 70 µM.

For `CN(C)c1ccc(C2Nc3ccccc3C(=O)N2CCCN2CCOCC2)cc1` (centres unmarked) [SJ000803767-1], the 50% inhibitory concentration (IC50) under setting [1] was greater than 70 µM.

As to `CCCN(CCCNc1ccnc2cc(Cl)ccc12)Cc1ccc2ccccc2c1` [SJ000523040-1, CCCN(CCCNc1ccnc2cc(Cl)ccc12)Cc3ccc4ccccc4c3], the IC50 under setting [2] is greater than 70 µM.
